Experimental findings from patent US20050192244A1, “Histamine release inhibitor” (priority 2002, published 2005) are described below.

The subject of the assay is mast cells. The assay can be described thus: Inhibitory effect on histamine release from rat peritoneal mast cells stimulated with compound 48/80 (histamine by HPLC, diazotation method). As to conditions: histamine release induced by compound 48/80, mean of three measurements; for inhibition at 10 µg/mL: sample concentration 10 μg/ml. It counts as cell-based. The source says:
(1) With regard to the following substances, an inhibitory effect on type I allergic reaction was investigated by investigating an inhibitory effect on histamine release from mast cells. • <1> Adenosine • <2> Guanosine • <3> Cytidine • <4> Uridine • <5> Adenosine monophosphate (AMP) • <6> Adenosine diphosphate (ADP) • <7> Adenosine triphosphate (ATP) • <8> Adenosine derived from Phellinus linteus (described later as Compound A) • <9> N-hydroxy-N-methyl-adenosine derived from Phellinus linteus (described later as Compound B) • <10> A commercially available histamine inhibitor (brand name: Intal, major component: disodium cromoglycate, manufacturer: Fujisawa Pharmaceutical Co., Ltd.)
(a) For a test animal, a male Wister rat (at 6 to 8 weeks of age) was used.
After a rat was sacrificed by exsanguination under anesthesia with ether, 15 ml of Tyrode Buffer was injected into the peritoneal cavity of the rat and intraperitoneal cavity fluid was recovered. Ten ml of Tyrode Buffer was further injected into the peritoneal cavity of the rat. Intraperitoneal cavity fluid was further recovered and combined with the intraperitoneal fluid recovered before. This intraperitoneal fluid was centrifuged at 800 rpm for 10 minutes at 4° C. and the supernatant was removed and filtrated.
Further, cell suspension, to which Tyrode Buffer was added, was centrifuged at 800 rpm for 10 minutes at 4° C., the supernatant was removed and the cells were homogenized. This cell suspension was measured with an erythrocytometer, and prepared to be 8×10^6 cells/ml for use.
The cell suspension (370 μl) dispensed into a 1.2 ml-microtube was pre-incubated in a water bath at 37° C.
Ten minutes later, 20 μl of sample prepared at each concentration was added.
Further, 10 minutes later, 10 μl of compound 48/80 (a mast cell stimulation agent; manufactured by Wako Pure Chemical Industries, Ltd.) (0.5 μg/ml), which is an allergy inducer, was added.
Fifteen minutes later, the reaction was terminated on ice.
Further, to remove the mast cells, centrifugation was carried out at 13,000 rpm for 15 minutes at 4° C. and the supernatant was recovered.
This supernatant was used as a sample for diazotation in HPLC analysis.
An equal amount of 20 mM p-nitroaniline hydrochloric acid solution and 200 mM sodium nitrite aqueous solution were mixed well (diazo reagent).
To 10 μl of the diazo reagent, 20 μl of the foregoing sample for (histamine) diazotation was added and mixed well by using a vortex mixer.
Further, 30 μl of sodium carbonate ethanol solution was added and mixed well by using a vortex mixer.
This solution (20 μl) was used in HPLC analysis.
(c) The analysis of histamine was carried out by the diazotation method (Specific Determination of Histamine in Fish by High-performance Liquid Chromatography after Diazo Coupling: Biosci. Biotech. Biochem. 59 (7) 1208-1210 (1995)).
(4) The results of the inhibitory effects on histamine release from mast cells of a specified concentration of <1> adenosine, <2> guanosine, <3> cytidine, <4> uridine, <5> adenosine monophosphate (AMP), <6> adenosine diphosphate (ADP), <7> adenosine triphosphate (ATP) (<1> to <7> substances were from Wako Pure Chemical Industries, Ltd.), <8> adenosine derived from Phellinus linteus (described later as Compound A), <9> N-hydroxy-N-methyl-adenosine derived from Phellinus linteus (described later as Compound B), and <10> a commercially available histamine inhibitor (brand name: Intal, major component: sodium cromoglycate, manufacturer: Fujisawa Pharmaceutical Co., Ltd.) are shown in Table 2. The inhibition ratios shown in Table 2 are mean values of three measurement values in each case.
The value of inhibition ratio was calculated from the following calculation formula.
Calculation Formula: (1−(peak integral value of sample)/(peak integral value of control))×100

Setting [1] is: Rattus norvegicus, Mast cell, sample concentration 5 μg/ml, read-out: Inhibition Ratio (%).
Where [2] appears, read: Rattus norvegicus, Mast cell, read-out: Inhibition Ratio (%).

Regarding `Nc1ncnc2c1ncn2[C@@H]1O[C@H](CO)[C@@H](O)[C@H]1O` [Adenosine derived from Phellinus linteus, adenosine], the inhibition at 5 µg/mL under setting [1] was determined as 41.5%.
On to `Nc1ncnc2c1ncn2[C@@H]1O[C@H](COP(=O)(O)OP(=O)(O)O)[C@@H](O)[C@H]1O` [Adenosine diphosphate, adenosine 5′-diphosphate], for which, under setting [2], the inhibition at 10 µg/mL stood at 47.8%.
Still for that read-out and setting: to `Nc1ncnc2c1ncn2[C@@H]1O[C@H](COP(=O)(O)O)[C@@H](O)[C@H]1O` [Adenosine monophosphate, adenosine 5′-monophosphate] belongs 54.9%.
On the same count and under the same terms, to `Nc1ncnc2c1ncn2[C@@H]1O[C@H](COP(=O)(O)OP(=O)(O)OP(=O)(O)O)[C@@H](O)[C@H]1O` [Adenosine triphosphate, adenosine 5′-triphosphate] belongs 40%.
`Nc1ncnc2c1ncn2[C@@H]1O[C@H](CO)[C@@H](O)[C@H]1O` [Adenosine]: the inhibition at 1 µg/mL (Rattus norvegicus, Mast cell, sample concentration 1 μg/ml, read-out: Inhibition Ratio (%)) was determined as 27.5%. Where the note is “Rattus norvegicus, Mast cell, sample concentration 20 μg/ml, read-out: Inhibition Ratio (%)”, the inhibition at 20 µg/mL came out at 59.3%. For the same molecule, under “Rattus norvegicus, Mast cell, sample concentration 50 μg/ml, read-out: Inhibition Ratio (%)”, the inhibition at 50 µg/mL worked out at 74.7%. The “Inhibition Ratio (%)” value (sample concentration 5 μg/ml) was determined as 43.8%.
For `Nc1ccn([C@@H]2O[C@H](CO)[C@@H](O)[C@H]2O)c(=O)n1` [Cytidine], under setting [1], the inhibition at 5 µg/mL was found to be 38%.
The same measure, in the same setting: to `Nc1nc2c(ncn2[C@@H]2O[C@H](CO)[C@@H](O)[C@H]2O)c(=O)[nH]1` [Guanosine] belongs 39%; to `CN(O)c1ncnc2c1ncn2[C@@H]1O[C@H](CO)[C@@H](O)[C@H]1O` [N-hydroxy-N-methyl-adenosine], 27%; to `O=c1ccn([C@@H]2O[C@H](CO)[C@@H](O)[C@H]2O)c(=O)[nH]1` [Uridine], 34%.
